The text below walks through data of patent publication US10813932B2, “1-pyrazolyl-3-(4-((2-anilinopyrimidin-4-yl) oxy) napththalen-1-yl) ureas as P38 MAP knase inhibitors” (Respivert Limited, priority 2011, dated 2020).

For one assay, the system named is Balb/c mice. Kind of assay: LPS-induced neutrophil accumulation in mice. The assay is classed as in vivo. The method, then:
Non-fasted Balb/c mice were dosed by the intra tracheal route with either vehicle, or the test substance at the indicated times (within the range 2-8 hr) before stimulation of the inflammatory response by application of an LPS challenge. At T=0, mice were placed into an exposure chamber and exposed to LPS (7.0 mL, 0.5 mg/mL solution in PBS) for 30 min). After a further 8 hr the animals were anesthetized, their tracheas cannulated and BALF extracted by infusing and then withdrawing from their lungs 1.0 mL of PBS via the tracheal catheter. Total and differential white cell counts in the BALF samples were measured using a Neubaur haemocytometer. Cytospin smears of the BALF samples were prepared by centrifugation at 200 rpm for 5 min at RT and stained using a DiffQuik stain system (Dade Behring). Cells were counted using oil immersion microscopy. Data for neutrophil numbers in BAL are shown as mean±S.E.M. (standard error of the mean). The percentage inhibition of neutrophil accumulation was calculated for each treatment relative to vehicle treatment.

In another assay the test system is A/J mice. Kind of assay: Cigarette smoke model. The assay is classed as in vivo. The method, then:
A/J mice (males, 5 weeks old) were exposed to cigarette smoke (4% cigarette smoke, diluted with air) for 30 min/day for 11 days using a Tobacco Smoke Inhalation Experiment System for small animals (Model SIS-CS; Sibata Scientific Technology, Tokyo, Japan). Test substances were administered intra-nasally (35 μL of solution in 50% DMSO/PBS) once daily for 3 days after the final cigarette smoke exposure. At 12 hr after the last dosing, each of the animals was anesthetized, the trachea cannulated and bronchoalveolar lavage fluid (BALF) was collected. The numbers of alveolar macrophages and neutrophils were determined by FACS analysis (EPICS® ALTRA II, Beckman Coulter, Inc., Fullerton, Calif., USA) using anti-mouse MOMA2 antibody (macrophage) or anti-mouse 7/4 antibody (neutrophil). BALF was centrifuged and the supernatant was collected. The level of keratinocyte chemoattractant (KC; CXCL1) in BALF was quantitated using a Quentikine® mouse KC ELISA kit (R&D systems, Inc., Minneapolis, Minn., USA).

For the compound `Cc1ccc(-n2nc(C(C)(C)C)cc2NC(=O)Nc2ccc(Oc3ccnc(Nc4ccccc4)n3)c3ccccc23)cc1` [Example 1, 1-(3-(tert-Butyl)-1-(p-tolyl)-1H-pyrazol-5-yl)-3-(4-(2-(phenylamino)pyrimidin-4-yloxy)naphthalen-1-yl)urea], in the assay with Balb/c mice, the LPS-induced neutrophil accumulation result is listed as “dose dependent inhibition”. In the assay with A/J mice, the “cigarette smoke induced CXCL1 (KC) production in BALF” value is “inhibited”, the “macrophage accumulation in BALF induced by cigarette smoke” value was “dose-dependent inhibition” and the “neutrophil accumulation in BALF induced by cigarette smoke” value is “dose-dependent inhibition”.
